For experiment [1], the target named is T1, binding of His-XIAP(BIR2)-avi fusion protein to GST-RIPK2 fusion protein (RIPK2/XIAP) (Homo sapiens, UniProt O43353).
T1 construct: made in house; host or cells: baculovirus infected Sf9 cells
The experiment in a line: RIPK2-XIAP binding competition PPI assay (TR-FRET). The note with it: RIPK2/XIAP binding competition PPI assay; for Emax: Amax, read-out: PPI Amax bin; for IC50: read-out: PPI IC50 bin. The method in brief:
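Compounds (in DMSO, 100-fold stock) incubated 120 min at 23 °C with 1 nM GST-RIPK2 (aa 1-310) and 25 nM His-XIAP(BIR2 aa 152-231)-avi, plus anti-His-XL665 and anti-GST-Tb, in pH 7.5 Tris buffer. Read-out: 665/520 nm emission ratio. Normalized to no-inhibitor (0%) and 50 nM GSK583 (−100%); Amax binned A–D.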
A general note: TR-FRET usually uses a lanthanide donor and a delayed reading to cut background.

Experiment [2] addresses T2, GST-RIPK2 fusion protein (human RIPK2, amino acids 1-310) (Homo sapiens, UniProt O43353).
T2 construct: made in house; host or cells: baculovirus infected Sf9 cells
Put plainly: RIPK2 binding competition assay (TR-FRET, Tracer 199 displacement). To be noted: 10 nM Tracer 199, 1 nM GST-RIPK2, read-out: RIPK2 IC50. The method in brief: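 GST-RIPK2 (human aa 1-310, Sf9-expressed; final 1 nM) with Tracer 199 (final 10 nM) and Tb-anti-GST (final 0.5 nM) in Tris pH 7.5 buffer, 45 min at 22 °C. TR-FRET 665/620 nm ratio after 337 nm excitation; normalized to no-inhibitor (0%) and no-protein (−100%), giving IC50.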

For experiment [3], the system named is NF-κB pathway (SEAP) in THP1-Dual cells. Put plainly: THP-1 Dual cell SEAP assay (L18-MDP stimulated). The class given is cell-based. To be noted: Homo sapiens, THP1-Dual, read-out: NF-κB THP1 IC50 bin. The gist of the method: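 THP1-Dual cells (~25,000/well) were preincubated 30 min with serially diluted compounds, then stimulated with 10 ng/mL L18-MDP (final) for 20-24 h at 37 °C. Supernatant SEAP was read with QUANTI-Blue at OD 620-655 nm after 2 h. IC50 came from non-linear fits of % inhibition versus DMSO/L18-MDP controls after media-blank subtraction.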

The structures appear in SMILES notation. Some results are limits rather than exact numbers.

T1 sequence (O43353 1-310 limits assumed): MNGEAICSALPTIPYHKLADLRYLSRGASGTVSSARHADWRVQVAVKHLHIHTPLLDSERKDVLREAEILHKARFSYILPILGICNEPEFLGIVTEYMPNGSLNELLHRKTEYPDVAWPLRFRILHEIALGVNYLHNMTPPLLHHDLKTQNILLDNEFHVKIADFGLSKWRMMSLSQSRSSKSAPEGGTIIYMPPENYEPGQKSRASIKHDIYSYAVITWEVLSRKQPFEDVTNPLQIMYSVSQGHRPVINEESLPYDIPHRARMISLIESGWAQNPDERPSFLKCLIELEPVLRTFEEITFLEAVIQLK
T2 sequence (O43353 1-310): as the sequence (O43353 1-310 limits assumed) above

Turning to `CC(C)(C)S(=O)(=O)c1cn2c(-c3cc(F)c(N)nc3F)cnc2cc1OC[C@H]1C[C@@H](O)C1` [Example 196, (1s,3s)-3-(((3-(6-amino-2,5-difluoropyridin-3-yl)-6-(tert-butylsulfonyl)imidazo [1,2-a]pyridin-7-yl)oxy)methyl) cyclobutan-1-ol], the Emax in experiment [1] is over 80%. Moreover, the IC50 (in general, the concentration that gives 50% inhibition) in experiment [1] lay within 1 to 2.5 nM; in experiment [2] it was 1 to 2.5 nM; in experiment [3] it was 50 to 250 nM.
Turning to `CC(C)(C)S(=O)(=O)c1cn2c(-c3cc(F)c(N)nc3F)cnc2cc1OC[C@H]1C[C@H](O)C1` [Example 197, (1r,3r)-3-(((3-(6-amino-2,5-difluoropyridin-3-yl)-6-(tert-butylsulfonyl)imidazo [1,2-a]pyridin-7-yl)oxy)methyl) cyclobutan-1-ol], the Emax in experiment [1] is over 80%. For the same compound, the values for the IC50 in experiment [1], in experiment [2] and in experiment [3] were under 1 nM, under 1 nM and 50 to 250 nM, respectively.
As for `C[C@H](CO)COc1cc2ncc(-c3cc(Cl)c(N)nc3F)n2cc1S(=O)(=O)C(C)(C)C` [Example 198, (R)-3-((3-(6-amino-5-chloro-2-fluoropyridin-3-yl)-6-(tert-butylsulfonyl)imidazo [1,2-a]pyridin-7-yl)oxy)-2-methylpropan-1-ol], the Emax in experiment [1] is over 80%. For the same compound, the IC50 is under 1 nM in experiment [1], 1 to 2.5 nM in experiment [2] and 50 to 250 nM in experiment [3].
On the same counts, the results for `C[C@@H](CO)COc1cn2ncc(-c3cc(Cl)c(N)nc3F)c2cc1S(=O)(=O)C(C)(C)C` [Example 199, (S)-3-((3-(6-amino-5-chloro-2-fluoropyridin-3-yl)-5-(tert-butylsulfonyl)pyrazolo [1,5-a]pyridin-6-yl)oxy)-2-methylpropan-1-ol] are over 80%, under 1 nM, under 1 nM and 50 to 250 nM.
On to `C[C@H](CO)COc1cn2ncc(-c3cc(Cl)c(N)nc3F)c2cc1S(=O)(=O)C(C)(C)C` [Example 200, (R)-3-((3-(6-amino-5-chloro-2-fluoropyridin-3-yl)-5-(tert-butylsulfonyl)pyrazolo [1,5-a]pyridin-6-yl)oxy)-2-methylpropan-1-ol], for which the Emax in experiment [1] was over 80%. The figures for the IC50 in experiment [1], in experiment [2] and in experiment [3] were under 1 nM, under 1 nM and under 50 nM, respectively.
For `C[C@@H](CO)COc1cc2ncc(-c3cc(Cl)c(N)nc3F)n2cc1S(=O)(=O)C(C)(C)C` [Example 201, (S)-3-((3-(6-amino-5-chloro-2-fluoropyridin-3-yl)-6-(tert-butylsulfonyl)imidazo [1,2-a]pyridin-7-yl)oxy)-2-methylpropan-1-ol], the Emax in experiment [1] was over 80%. The figures for the IC50 in experiment [1], in experiment [2] and in experiment [3] were 1 to 2.5 nM, 1 to 2.5 nM and 50 to 250 nM, respectively.
For `CC(C)(C)S(=O)(=O)c1cn2c(-c3cc(F)c(N)nc3F)cnc2cc1OCC(F)(F)CN` [Example 202, 5-(7-(3-amino-2,2-difluoropropoxy)-6-(tert-butylsulfonyl)imidazo [1,2-a]pyridin-3-yl)-3,6-difluoropyridin-2-amine], the Emax in experiment [1] was over 80%. Besides, the IC50 in experiment [1] lay within 1 to 2.5 nM; in experiment [2], 1 to 2.5 nM; in experiment [3], 50 to 250 nM.
In the case of `CC(C)(C)S(=O)(=O)c1cn2c(-c3cc(F)c(N)nc3F)cnc2cc1OCC(F)CO` (centres unmarked) [Example 203, 3-((3-(6-amino-2,5-difluoropyridin-3-yl)-6-(tert-butylsulfonyl)imidazo [1,2-a]pyridin-7-yl)oxy)-2-fluoropropan-1-ol], the Emax in experiment [1] was over 80%. In addition, the results for the half-inhibitory concentration (IC50) in experiment [1], in experiment [2] and in experiment [3] were 1 to 2.5 nM, 1 to 2.5 nM and 50 to 250 nM, respectively.
Take `CC(F)(CO)COc1cc2ncc(-c3cc(F)c(N)nc3F)n2cc1S(=O)(=O)C(C)(C)C` (centres unmarked) [Example 204, 3-((3-(6-amino-2,5-difluoropyridin-3-yl)-6-(tert-butylsulfonyl)imidazo [1,2-a]pyridin-7-yl)oxy)-2-fluoro-2-methylpropan-1-ol]: in experiment [1], the Emax was over 80%. For the same compound, the IC50 lay within 1 to 2.5 nM in experiment [1], 1 to 2.5 nM in experiment [2] and 50 to 250 nM in experiment [3].
As to `CCCS(=O)(=O)Nc1cc(-c2cnc3cc(OC)c(C(=O)N(C)C(C)C)cn23)cc(F)c1OC` [Example 205, 3-(3-fluoro-4-methoxy-5-(propylsulfonamido)phenyl)-N-isopropyl-7-methoxy-N-methylimidazo[1,2-a]pyridine-6-carboxamide], the Emax in experiment [1] fell in the range of 55 to 80%. Also, the IC50 was over 20 nM in experiment [1], over 20 nM in experiment [2] and over 1000 nM in experiment [3].
For `CC(C)(C)S(=O)(=O)c1cn2c(-c3ccc4[nH]ccc4c3)cnc2cc1OCCO` [Example 206, 2-((6-(tert-butylsulfonyl)-3-(1H-indol-5-yl)imidazo[1,2-a]pyridin-7-yl)oxy)ethan-1-ol], the Emax in experiment [1] fell in the range of 55 to 80%. The values for the IC50 in experiment [1], in experiment [2] and in experiment [3] were under 1 nM, 1 to 2.5 nM and 50 to 250 nM, respectively.
On the same counts, the results for `CC(C)(C)S(=O)(=O)c1cn2c(-c3ccc4[nH]cnc4c3)cnc2cc1OCCO` [Example 207, 2-((3-(1H-benzo[d]imidazol-5-yl)-6-(tert-butylsulfonyl)imidazo [1,2-a]pyridin-7-yl)oxy)ethan-1-ol] are under 30%, over 20 nM, 2.5 to 20 nM and over 1000 nM.
Regarding `CC(C)(C)S(=O)(=O)c1cn2c(-c3ccc4nccn4c3)cnc2cc1OCCO` [Example 208, 2-((6-(tert-butylsulfonyl)-[3,6′-biimidazo[1,2-a]pyridin] -7-yl)oxy)ethan-1-ol], the Emax in experiment [1] was under 30%. For the same compound, the figures for the IC50 in experiment [1], in experiment [2] and in experiment [3] were over 20 nM, 2.5 to 20 nM and over 1000 nM, respectively.
Turning to `CC(C)(C)S(=O)(=O)c1cn2c(-c3ccc4ccnn4c3)cnc2cc1OCCO` [Example 209, 2-((6-(tert-butylsulfonyl)-3-(pyrazolo[1,5-a]pyridin-6-yl)imidazo[1,2-a]pyridin-7-yl)oxy)ethan-1-ol], in experiment [1], the Emax was in the range of 30 to 55%. Also, the results for the IC50 in experiment [1], in experiment [2] and in experiment [3] were over 20 nM, over 20 nM and over 1000 nM, respectively.
For `CC(C)(C)S(=O)(=O)c1cn2c(-c3cnc4cn[nH]c4c3)cnc2cc1OCCO` [Example 210, 2-((6-(tert-butylsulfonyl)-3-(1H-pyrazolo[4,3-b]pyridin-6-yl)imidazo[1,2-a]pyridin-7-yl)oxy)ethan-1-ol], in experiment [1], the Emax was under 30%. In addition, the IC50 in experiment [1] was over 20 nM; in experiment [2], over 20 nM; in experiment [3], over 1000 nM.
As to `COc1cn2ncc(-c3cc(F)c(OC)c(NS(=O)(=O)c4cnn(C)c4)c3)c2nc1OC` [Example 211, N-(5-(5,6-dimethoxypyrazolo[1,5-a]pyrimidin-3-yl)-3-fluoro-2-methoxyphenyl)-1-methyl-1H-pyrazole-4-sulfonamide], the Emax in experiment [1] is over 80%. In addition, the results for the IC50 in experiment [1], in experiment [2] and in experiment [3] were 2.5 to 20 nM, 2.5 to 20 nM and over 1000 nM, respectively.
For the compound `C[C@@H](O)COc1cc2ncc(-c3cc(Cl)c(N)nc3F)n2cc1S(=O)(=O)C(C)(C)C` [Example 212, (R)-1-((3-(6-amino-5-chloro-2-fluoropyridin-3-yl)-6-(tert-butylsulfonyl)imidazo [1,2-a]pyridin-7-yl)oxy)propan-2-ol], the Emax in experiment [1] is over 80%. Moreover, the IC50 in experiment [1] fell in the range of 1 to 2.5 nM; in experiment [2], 1 to 2.5 nM; in experiment [3], 50 to 250 nM.
Consider `COc1cc2ncc(-c3cc(F)c(N)nc3F)n2cc1C1CCCN(C)C1=O` (centres unmarked) [Example 213, 3-(3-(6-amino-2,5-difluoropyridin-3-yl)-7-methoxyimidazo[1,2-a]pyridin-6-yl)-1-methylpiperidin-2-one], for which the Emax in experiment [1] is 55 to 80%. For the same compound, the IC50 in experiment [1] is over 20 nM; in experiment [2], over 20 nM; in experiment [3], over 1000 nM.
`COc1cc2ncc(-c3cc(F)c(OC)c(NS(=O)(=O)c4cnn(C)c4)c3)n2cc1S(C)(=O)=O` [Example 214, N-(3-fluoro-2-methoxy-5-(7-methoxy-6-(methylsulfonyl)imidazo[1,2-a]pyridin-3-yl)phenyl)-1-methyl-1H-pyrazole-4-sulfonamide]: the Emax in experiment [1] was over 80%. Also, the figures for the 50% inhibitory concentration (IC50) in experiment [1], in experiment [2] and in experiment [3] were under 1 nM, under 1 nM and 50 to 250 nM, respectively.
As to `CC(C)(C)S(=O)(=O)c1cc2c(-c3cc4cc[nH]c4nc3F)cnn2cc1OCCO` [Example 215, 2-((5-(tert-butylsulfonyl)-3-(6-fluoro-1H-pyrrolo[2,3-b]pyridin-5-yl)pyrazolo[1,5-a]pyridin-6-yl)oxy)ethan-1-ol], the Emax in experiment [1] was over 80%. The IC50 in experiment [1] is under 1 nM; in experiment [2] it was under 1 nM; in experiment [3], under 50 nM.

Source of the values: US20260137706A1, “METHODS OF TREATING INFLAMMATORY DISEASES” (INTERLINE THERAPEUTICS, INC., priority 2023, published 2026).
